#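 GI50: concentration for 50% inhibition of growth. Definition used: TGI = concentration required for complete inhibition of growth.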
# Experiments:
# Assay in all cases: DTP human tumour cell line panel, 384-well format
# HCT-15 colon = tested on: HCT-15 colon
# MALME-3M melanoma = tested on: MALME-3M melanoma
# SF-268 CNS = tested on: SF-268 CNS
# SN12C renal = tested on: SN12C renal
# IGROV1 ovarian = tested on: IGROV1 ovarian
# CCRF-CEM leukemia = tested on: CCRF-CEM leukemia
# EKVX NSCLC = tested on: EKVX NSCLC
# NCI-H522 lung = tested on: NCI-H522 lung
# A549 NSCLC = tested on: A549 NSCLC
# SK-MEL-5 melanoma = tested on: SK-MEL-5 melanoma
# BT-549 breast = tested on: BT-549 breast
# OVCAR-3 ovarian = tested on: OVCAR-3 ovarian
# K-562 leukemia = tested on: K-562 leukemia
# HS 578T breast = tested on: HS 578T breast
# SK-MEL-28 melanoma = tested on: SK-MEL-28 melanoma
# UACC-62 melanoma = tested on: UACC-62 melanoma
# NCI/ADR-RES ovarian = tested on: NCI/ADR-RES ovarian
# OVCAR-4 ovarian = tested on: OVCAR-4 ovarian
# RPMI-8226 leukemia = tested on: RPMI-8226 leukemia
# TK-10 renal = tested on: TK-10 renal
# RXF 393 renal = tested on: RXF 393 renal
# PC-3 prostate = tested on: PC-3 prostate
# ACHN renal = tested on: ACHN renal
# MDA-MB-435 melanoma = tested on: MDA-MB-435 melanoma
# SW-620 colon = tested on: SW-620 colon
# NCI-H23 lung = tested on: NCI-H23 lung
# A498 renal = tested on: A498 renal
# HL-60(TB) leukemia = tested on: HL-60(TB) leukemia
# MDA-MB-468 breast = tested on: MDA-MB-468 breast
# U251 glioblastoma = tested on: U251 glioblastoma
# 786-0 renal = tested on: 786-0 renal
# MOLT-4 leukemia = tested on: MOLT-4 leukemia
# SR leukemia = tested on: SR leukemia
# HCC-2998 colon = tested on: HCC-2998 colon
# SF-539 CNS = tested on: SF-539 CNS
# HCT-116 colon = tested on: HCT-116 colon
# OVCAR-8 ovarian = tested on: OVCAR-8 ovarian
# KM12 colon = tested on: KM12 colon
# HOP-62 NSCLC = tested on: HOP-62 NSCLC
# OVCAR-5 ovarian = tested on: OVCAR-5 ovarian
# UACC-257 melanoma = tested on: UACC-257 melanoma
# HOP-92 NSCLC = tested on: HOP-92 NSCLC
# SF-295 CNS = tested on: SF-295 CNS
# SK-OV-3 ovarian = tested on: SK-OV-3 ovarian
# SNB-75 CNS = tested on: SNB-75 CNS
# NCI-H226 lung = tested on: NCI-H226 lung
# M14 melanoma = tested on: M14 melanoma
structure (smiles),measurement,setting,value
c1cn2cc(-c3ccc4cn[nH]c4c3)nc(Nc3ccc(N4CCOCC4)cc3)c2n1,GI50,HCT-15 colon,19.4 µM
same,TGI,HCT-15 colon,> 100 µM
same,GI50,MALME-3M melanoma,6.24 µM
same,TGI,MALME-3M melanoma,19.4 µM
same,GI50,SF-268 CNS,4.45 µM
same,TGI,SF-268 CNS,16.9 µM
same,GI50,SN12C renal,10 µM
same,TGI,SN12C renal,22.6 µM
same,GI50,IGROV1 ovarian,14.1 µM
same,TGI,IGROV1 ovarian,37.9 µM
same,GI50,CCRF-CEM leukemia,> 100 µM
same,TGI,CCRF-CEM leukemia,> 100 µM
same,GI50,EKVX NSCLC,9.48 µM
same,TGI,EKVX NSCLC,25.1 µM
same,GI50,NCI-H522 lung,3.46 µM
same,TGI,NCI-H522 lung,12.8 µM
same,GI50,A549 NSCLC,17.1 µM
same,TGI,A549 NSCLC,> 53.8 µM
same,GI50,SK-MEL-5 melanoma,11.3 µM
same,TGI,SK-MEL-5 melanoma,32.8 µM
same,GI50,BT-549 breast,11.2 µM
same,TGI,BT-549 breast,23.5 µM
same,GI50,OVCAR-3 ovarian,12.7 µM
same,TGI,OVCAR-3 ovarian,28.3 µM
same,GI50,K-562 leukemia,> 100 µM
same,TGI,K-562 leukemia,> 100 µM
same,GI50,HS 578T breast,1.87 µM
same,TGI,HS 578T breast,8.11 µM
same,GI50,SK-MEL-28 melanoma,12.4 µM
same,TGI,SK-MEL-28 melanoma,29.6 µM
same,GI50,UACC-62 melanoma,7.97 µM
same,TGI,UACC-62 melanoma,20.9 µM
same,GI50,NCI/ADR-RES ovarian,11.7 µM
same,TGI,NCI/ADR-RES ovarian,29.6 µM
same,GI50,OVCAR-4 ovarian,6.52 µM
same,TGI,OVCAR-4 ovarian,20 µM
same,GI50,RPMI-8226 leukemia,16.9 µM
same,TGI,RPMI-8226 leukemia,> 58.6 µM
same,GI50,TK-10 renal,5.67 µM
same,TGI,TK-10 renal,22 µM
same,GI50,RXF 393 renal,2.44 µM
same,TGI,RXF 393 renal,13.3 µM
same,GI50,PC-3 prostate,14.1 µM
same,TGI,PC-3 prostate,28.7 µM
same,GI50,ACHN renal,10.7 µM
same,TGI,ACHN renal,25.1 µM
same,GI50,MDA-MB-435 melanoma,22.6 µM
same,TGI,MDA-MB-435 melanoma,> 75.5 µM
same,GI50,SW-620 colon,33.1 µM
same,TGI,SW-620 colon,> 100 µM
same,GI50,NCI-H23 lung,10.8 µM
same,TGI,NCI-H23 lung,25.7 µM
same,GI50,A498 renal,3.26 µM
same,TGI,A498 renal,16.6 µM
same,GI50,HL-60(TB) leukemia,> 100 µM
same,TGI,HL-60(TB) leukemia,> 100 µM
same,GI50,MDA-MB-468 breast,16.1 µM
same,TGI,MDA-MB-468 breast,57.1 µM
same,GI50,U251 glioblastoma,9.72 µM
same,TGI,U251 glioblastoma,25.4 µM
same,GI50,786-0 renal,8.76 µM
same,TGI,786-0 renal,21.1 µM
same,GI50,MOLT-4 leukemia,48 µM
same,TGI,MOLT-4 leukemia,> 100 µM
same,GI50,SR leukemia,5.01 µM
same,TGI,SR leukemia,14.5 µM
same,GI50,HCC-2998 colon,17.5 µM
same,TGI,HCC-2998 colon,> 85.7 µM
same,GI50,SF-539 CNS,4.6 µM
same,TGI,SF-539 CNS,16.5 µM
same,GI50,HCT-116 colon,15 µM
same,TGI,HCT-116 colon,34.3 µM
same,GI50,OVCAR-8 ovarian,4.82 µM
same,TGI,OVCAR-8 ovarian,17.1 µM
same,GI50,KM12 colon,0.527 µM
same,TGI,KM12 colon,25 µM
same,GI50,HOP-62 NSCLC,9.54 µM
same,TGI,HOP-62 NSCLC,22.2 µM
same,GI50,OVCAR-5 ovarian,12.8 µM
same,TGI,OVCAR-5 ovarian,30.3 µM
same,GI50,UACC-257 melanoma,11.5 µM
same,TGI,UACC-257 melanoma,27.6 µM
same,GI50,HOP-92 NSCLC,5.8 µM
same,TGI,HOP-92 NSCLC,19.1 µM
same,GI50,SF-295 CNS,13.7 µM
same,TGI,SF-295 CNS,27.4 µM
same,GI50,SK-OV-3 ovarian,5.35 µM
same,TGI,SK-OV-3 ovarian,19.3 µM
same,GI50,SNB-75 CNS,2.15 µM
same,TGI,SNB-75 CNS,9.11 µM
same,GI50,NCI-H226 lung,9.38 µM
same,TGI,NCI-H226 lung,23 µM
same,GI50,M14 melanoma,23.5 µM
same,TGI,M14 melanoma,86.6 µM

# From PubChem BioAssay (NCI)
